The assay has as its target T1, human mAChR M4 (Homo sapiens, UniProt P08173).
T1 construct: expressed in transfected cells; host or cells: CHO-K1 (American Type Culture Collection), stably expressing hM4 and Gqi5
T1 sequence (P08173 1-479): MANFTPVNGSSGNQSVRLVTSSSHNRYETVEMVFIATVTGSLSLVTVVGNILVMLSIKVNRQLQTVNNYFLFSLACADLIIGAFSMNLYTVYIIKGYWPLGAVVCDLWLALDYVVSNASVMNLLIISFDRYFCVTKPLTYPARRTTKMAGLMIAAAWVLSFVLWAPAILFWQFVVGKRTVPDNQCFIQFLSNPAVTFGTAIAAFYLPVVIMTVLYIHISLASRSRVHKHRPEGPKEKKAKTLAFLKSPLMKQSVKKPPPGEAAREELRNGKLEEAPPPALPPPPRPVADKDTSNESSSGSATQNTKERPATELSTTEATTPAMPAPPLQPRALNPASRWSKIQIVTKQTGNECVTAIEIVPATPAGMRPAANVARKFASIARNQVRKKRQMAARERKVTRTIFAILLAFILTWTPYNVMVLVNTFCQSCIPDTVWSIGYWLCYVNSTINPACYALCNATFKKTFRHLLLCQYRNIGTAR
As to the kind of experiment: mAChR M4 cell-based functional assay: calcium mobilization (Fluo-4, FDSS), potentiation of EC20 acetylcholine response in hM4-Gqi5 CHO-K1 cells. The conditions noted are these: human M4; for Emax at 30 µM: CHO-K1, % ACh maximum at 30 μM; for EC50: potentiation of EC20 acetylcholine response, calcium mobilization. A digest of the protocol: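 Readout is the fluorescence-ratio rise at 1 Hz on FDSS, with PAM activity taken as concentration-dependent enhancement of the EC20 acetylcholine response, fitted four-parameter for EC50/Emax. hM4-Gqi5 CHO-K1 cells carried Fluo-4 AM dye; test compounds (11 points, 1:3) preceded EC20 acetylcholine additions at 144 s and 230 s.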

Structures are written as SMILES.

`[2H]C1([2H])Cc2ncc(-c3ccnn3C)cc2C([2H])([2H])N1c1nn2c(=O)ccnc2cc1C` [Compound 1-449, 8-methyl-7-(3-(1-methyl-1H-pyrazol-5-yl)-7,8-dihydro-1,6-naphthyridin-6(5H)-yl-5,5,7,7-d4)-4H-pyrimido[1,2-b]pyridazin-4-one]: the Emax at 30 µM is 93% and the EC50 amounted to 283 nM.
`[2H]C1([2H])Cc2ncc(-c3c(C)noc3C)cc2C([2H])([2H])N1c1nn2c(=O)ccnc2cc1C` [Compound 1-450, 7-(3-(3,5-Dimethylisoxazol-4-yl)-7,8-dihydro-1,6-naphthyridin-6(5H)-yl-5,5,7,7-d4)-8-methyl-4H-pyrimido[1,2-b]pyridazin-4-one]: the Emax at 30 µM turned out to be 95% and the EC50 came out at 291 nM.
Regarding `Cc1cc2nccc(=O)n2nc1N1CCc2ncc(N3CCCn4nccc43)cc2C1` [Compound 2-1, 7-(3-(6,7-dihydropyrazolo[1,5-a]pyrimidin-4(5H)-yl)-7,8-dihydro-1,6-naphthyridin-6(5H)-yl)-8-methyl-4H-pyrimido[1,2-b]pyridazin-4-one], the Emax at 30 µM came out at 97% and the EC50 was found to be 21 nM.
As for `Cc1cc2nccc(=O)n2nc1N1CCc2ncc(N3CCO[C@H](C)C3)cc2C1` [Compound 2-2, (R)-8-methyl-7-(3-(2-methylmorpholino)-7,8-dihydro-1,6-naphthyridin-6(5H)-yl)-4H-pyrimido[1,2-b]pyridazin-4-one], the Emax at 30 µM stood at 87% and the EC50 was 363 nM.
For the compound `Cc1cc(N2CCc3ncc(N4CCCn5nccc54)cc3C2)nn2c(=O)ccnc12` [Compound 2-3, 7-(3-(6,7-dihydropyrazolo[1,5-a]pyrimidin-4(5H)-yl)-7,8-dihydro-1,6-naphthyridin-6(5H)-yl)-9-methyl-4H-pyrimido[1,2-b]pyridazin-4-one], the Emax at 30 µM is 71% and the EC50 is 173 nM.
As to `Cc1cc2ncc(Cl)c(=O)n2nc1N1CCc2ncc(N3CCCn4nccc43)cc2C1` [Compound 2-4, 3-chloro-7-(3-(6,7-dihydropyrazolo[1,5-a]pyrimidin-4(5H)-yl)-7,8-dihydro-1,6-naphthyridin-6(5H)-yl)-8-methyl-4H-pyrimido[1,2-b]pyridazin-4-one], the Emax at 30 µM came out at 115% and the EC50 is 30 nM.
Take `Cc1cc2n(n1)CCCN2c1cnc2c(c1)CN(c1nn3c(=O)ccnc3cc1C)CC2` [Compound 2-5, 8-methyl-7-(3-(2-methyl-6,7-dihydropyrazolo[1,5-a]pyrimidin-4(5H)-yl)-7,8-dihydro-1,6-naphthyridin-6(5H)-yl)-4H-pyrimido[1,2-b]pyridazin-4-one]: the maximal response (Emax) at 30 µM was 97% and the EC50 amounted to 60 nM.
On the same counts, the results for `Cc1cc2nccc(=O)n2nc1N1CCc2ncc(-n3cccn3)cc2C1` [Compound 2-6, 7-(3-(1H-pyrazol-1-yl)-7,8-dihydro-1,6-naphthyridin-6(5H)-yl)-8-methyl-4H-pyrimido[1,2-b]pyridazin-4-one] are 65% and 1170 nM.
`Cc1cc2nccc(=O)n2nc1N1CCc2ncc(N3CCOc4ncccc43)cc2C1` [Compound 2-7, 7-(3-(2,3-dihydro-1H-pyrido[2,3-b][1,4]oxazin-1-yl)-7,8-dihydro-1,6-naphthyridin-6(5H)-yl)-8-methyl-4H-pyrimido[1,2-b]pyridazin-4-one]: the Emax at 30 µM came to 84% and the EC50 worked out at 24 nM.
Consider `Cc1cc2nccc(=O)n2nc1N1CCc2ncc(Nc3ccnn3C)cc2C1` [Compound 2-8, 8-methyl-7-(3-((1-methyl-1H-pyrazol-5-yl)amino)-7,8-dihydro-1,6-naphthyridin-6(5H)-yl)-4H-pyrimido[1,2-b]pyridazin-4-one], for which the Emax at 30 µM was determined as 84% and the EC50 is 384 nM.
For the compound `Cc1cc2nc(C)c(F)c(=O)n2nc1N1CCc2ncc(N3CCCn4nccc43)cc2C1` [Compound 2-9, 7-(3-(6,7-dihydropyrazolo[1,5-a]pyrimidin-4(5H)-yl)-7,8-dihydro-1,6-naphthyridin-6(5H)-yl)-3-fluoro-2,8-dimethyl-4H-pyrimido[1,2-b]pyridazin-4-one], the Emax at 30 µM was determined as 84% and the EC50 came out at 17 nM.
Regarding `Cc1cc(=O)n2nc(N3CCc4ncc(N5CCCn6nccc65)cc4C3)c(C)cc2n1` [Compound 2-10, 7-(3-(6,7-dihydropyrazolo[1,5-a]pyrimidin-4(5H)-yl)-7,8-dihydro-1,6-naphthyridin-6(5H)-yl)-2,8-dimethyl-4H-pyrimido[1,2-b]pyridazin-4-one], the Emax at 30 µM was 94% and the EC50 amounted to 70 nM.
On to `Cc1cc2nc(C(F)(F)F)cc(=O)n2nc1N1CCc2ncc(N3CCCn4nccc43)cc2C1` [Compound 2-11, 7-(3-(6,7-dihydropyrazolo[1,5-a]pyrimidin-4(5H)-yl)-7,8-dihydro-1,6-naphthyridin-6(5H)-yl)-8-methyl-2-(trifluoromethyl)-4H-pyrimido[1,2-b]pyridazin-4-one], for which the maximal response (Emax) at 30 µM amounted to 115% and the EC50 was determined as 19 nM.
In the case of `Cc1nc2c(C)c(C)c(N3CCc4ncc(N5CCCn6nccc65)cc4C3)nn2c(=O)c1F` [Compound 2-12, 7-(3-(6,7-dihydropyrazolo[1,5-a]pyrimidin-4(5H)-yl)-7,8-dihydro-1,6-naphthyridin-6(5H)-yl)-3-fluoro-2,8,9-trimethyl-4H-pyrimido[1,2-b]pyridazin-4-one], the Emax at 30 µM was determined as 128% and the EC50 was determined as 39 nM.
With `Cc1cc2nc(C)c(C)c(=O)n2nc1N1CCc2ncc(N3CCCn4nccc43)cc2C1` [Compound 2-13, 7-(3-(6,7-dihydropyrazolo[1,5-a]pyrimidin-4(5H)-yl)-7,8-dihydro-1,6-naphthyridin-6(5H)-yl)-2,3,8-trimethyl-4H-pyrimido[1,2-b]pyridazin-4-one], the Emax at 30 µM turned out to be 82% and the EC50 was 27 nM.
On the same counts, the results for `Cc1cc2nc(C(F)F)cc(=O)n2nc1N1CCc2ncc(N3CCCn4nccc43)cc2C1` [Compound 2-14, 2-(difluoromethyl)-7-(3-(6,7-dihydropyrazolo[1,5-a]pyrimidin-4(5H)-yl)-7,8-dihydro-1,6-naphthyridin-6(5H)-yl)-8-methyl-4H-pyrimido[1,2-b]pyridazin-4-one] are 88% and 22 nM.
As to `Cc1cc2nc(C3CC3)cc(=O)n2nc1N1CCc2ncc(N3CCCn4nccc43)cc2C1` [Compound 2-15, 2-cyclopropyl-7-(3-(6,7-dihydropyrazolo[1,5-a]pyrimidin-4(5H)-yl)-7,8-dihydro-1,6-naphthyridin-6(5H)-yl)-8-methyl-4H-pyrimido[1,2-b]pyridazin-4-one], the Emax at 30 µM stood at 85% and the EC50 was found to be 7 nM.
The matching figures for `Cc1cc2nc(C)c(Cl)c(=O)n2nc1N1CCc2ncc(N3CCCn4nccc43)cc2C1` [Compound 2-16, 3-chloro-7-(3-(6,7-dihydropyrazolo[1,5-a]pyrimidin-4(5H)-yl)-7,8-dihydro-1,6-naphthyridin-6(5H)-yl)-2,8-dimethyl-4H-pyrimido[1,2-b]pyridazin-4-one]: 88% and 12 nM.
For the compound `Cc1cc(=O)n2nc(N3CCc4ncc(N5CCOc6ncccc65)cc4C3)c(C)cc2n1` [Compound 2-17, 7-(3-(2,3-dihydro-1H-pyrido[2,3-b][1,4]oxazin-1-yl)-7,8-dihydro-1,6-naphthyridin-6(5H)-yl)-2,8-dimethyl-4H-pyrimido[1,2-b]pyridazin-4-one], the Emax at 30 µM worked out at 98% and the EC50 was 9 nM.
